Experimental data reported in PMC7026418, “The kinase polypharmacology landscape of clinical PARP inhibitors” (Scientific Reports, 2020).
Read-outs that look alike come from different tables or passages of the source. Values belong to the molecule of their own block, whether it stands above or below them.

Experiments:
Assay in all cases: biochemical
Set-up in all cases: DiscoveRx KINOMEscan active site-directed competition binding; percent of control kinase bound to immobilised ligand
[1] = target: T1, DLK (Homo sapiens, UniProt Q12852)
T1 construct: gene MAP3K12
T1 sequence (Q12852 1-859): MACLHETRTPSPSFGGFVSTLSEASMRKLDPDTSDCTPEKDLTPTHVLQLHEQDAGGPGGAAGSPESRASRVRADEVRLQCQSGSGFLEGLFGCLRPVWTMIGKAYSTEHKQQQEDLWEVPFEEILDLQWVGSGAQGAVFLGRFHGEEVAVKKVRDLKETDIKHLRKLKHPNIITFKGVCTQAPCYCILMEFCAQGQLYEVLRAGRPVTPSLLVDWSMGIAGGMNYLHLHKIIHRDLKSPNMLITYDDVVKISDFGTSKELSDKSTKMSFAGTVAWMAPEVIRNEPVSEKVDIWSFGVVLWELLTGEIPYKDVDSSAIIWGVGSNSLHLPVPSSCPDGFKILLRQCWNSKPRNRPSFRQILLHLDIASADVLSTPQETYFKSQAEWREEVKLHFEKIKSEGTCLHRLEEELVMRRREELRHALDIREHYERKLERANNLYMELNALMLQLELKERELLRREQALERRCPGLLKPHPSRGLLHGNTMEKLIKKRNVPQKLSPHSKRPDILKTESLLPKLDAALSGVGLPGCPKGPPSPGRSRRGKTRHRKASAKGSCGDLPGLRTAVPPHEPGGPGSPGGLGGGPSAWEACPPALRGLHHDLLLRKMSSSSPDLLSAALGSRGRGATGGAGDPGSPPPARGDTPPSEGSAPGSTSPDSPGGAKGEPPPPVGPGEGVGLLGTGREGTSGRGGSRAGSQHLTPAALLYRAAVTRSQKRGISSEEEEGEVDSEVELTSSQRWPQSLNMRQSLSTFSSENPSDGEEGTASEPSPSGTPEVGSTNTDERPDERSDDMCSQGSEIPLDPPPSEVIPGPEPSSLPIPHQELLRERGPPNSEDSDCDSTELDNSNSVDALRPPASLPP

[2] = target: T2, PAK7 (Homo sapiens, UniProt Q9P286)
T2 construct: gene PAK5

[3] = target: T3, FLT3(R834Q) (Homo sapiens, UniProt P36888, R834Q)
T3 sequence (P36888 1-993 R834Q): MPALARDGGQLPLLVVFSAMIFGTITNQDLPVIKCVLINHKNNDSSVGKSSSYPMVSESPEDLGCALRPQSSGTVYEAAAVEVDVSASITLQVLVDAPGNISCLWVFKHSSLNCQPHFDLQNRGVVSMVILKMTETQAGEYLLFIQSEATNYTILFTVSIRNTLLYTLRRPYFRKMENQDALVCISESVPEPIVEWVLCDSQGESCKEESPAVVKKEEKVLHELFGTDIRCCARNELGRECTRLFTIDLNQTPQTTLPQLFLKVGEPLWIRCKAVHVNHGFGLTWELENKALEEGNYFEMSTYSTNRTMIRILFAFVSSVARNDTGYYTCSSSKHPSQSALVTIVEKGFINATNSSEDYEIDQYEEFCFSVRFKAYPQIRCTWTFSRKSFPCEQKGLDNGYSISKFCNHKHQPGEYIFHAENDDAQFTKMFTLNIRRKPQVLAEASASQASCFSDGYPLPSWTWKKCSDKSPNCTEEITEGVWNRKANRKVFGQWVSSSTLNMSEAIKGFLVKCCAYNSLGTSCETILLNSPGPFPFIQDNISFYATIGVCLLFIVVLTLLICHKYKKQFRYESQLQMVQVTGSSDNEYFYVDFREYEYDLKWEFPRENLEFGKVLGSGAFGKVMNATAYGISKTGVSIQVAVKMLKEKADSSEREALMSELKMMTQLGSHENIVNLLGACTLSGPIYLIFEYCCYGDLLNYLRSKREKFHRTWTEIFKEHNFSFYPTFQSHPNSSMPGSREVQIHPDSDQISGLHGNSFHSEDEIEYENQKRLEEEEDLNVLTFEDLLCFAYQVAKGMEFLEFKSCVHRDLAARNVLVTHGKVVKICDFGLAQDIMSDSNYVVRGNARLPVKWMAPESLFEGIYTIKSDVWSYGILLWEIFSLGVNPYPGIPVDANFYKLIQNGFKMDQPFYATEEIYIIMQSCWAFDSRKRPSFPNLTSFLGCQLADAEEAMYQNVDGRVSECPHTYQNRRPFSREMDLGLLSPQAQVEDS

[4] = target: T4, AURKC (Homo sapiens, UniProt Q9UQB9)
T4 sequence (Q9UQB9 1-309): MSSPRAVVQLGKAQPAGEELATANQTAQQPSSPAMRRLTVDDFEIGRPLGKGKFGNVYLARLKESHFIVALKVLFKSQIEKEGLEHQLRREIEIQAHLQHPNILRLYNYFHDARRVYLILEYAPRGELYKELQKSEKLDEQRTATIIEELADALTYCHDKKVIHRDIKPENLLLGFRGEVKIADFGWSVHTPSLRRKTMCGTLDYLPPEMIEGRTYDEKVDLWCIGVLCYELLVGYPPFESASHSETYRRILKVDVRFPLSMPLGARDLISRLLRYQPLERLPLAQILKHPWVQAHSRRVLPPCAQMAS

[5] = target: HIPK3 (Homo sapiens, UniProt Q9H422)
[6] = target: T5, p38-alpha (Homo sapiens, UniProt Q16539)
T5 construct: gene MAPK14

[7] = target: T6, CDC2L1 (Homo sapiens, UniProt P21127)
T6 construct: gene CDK11B

[8] = target: T7, GCN2(Kin.Dom.2,S808G) (Homo sapiens, UniProt Q9P2K8, S808G)
T7 construct: gene EIF2AK4; Kin.Dom.2

[9] = read-out: Niraparib (MK-4827) / %Ctrl @ 10000nM
[10] = read-out: Rucaparib / %Ctrl @ 10000nM, binding competition, % of control
[11] = read-out: Olaparib / %Ctrl @ 10000nM
[12] = read-out: Talazoparib (BMN 673) / %Ctrl @ 10000nM

T6 sequence (P21127 whole entry): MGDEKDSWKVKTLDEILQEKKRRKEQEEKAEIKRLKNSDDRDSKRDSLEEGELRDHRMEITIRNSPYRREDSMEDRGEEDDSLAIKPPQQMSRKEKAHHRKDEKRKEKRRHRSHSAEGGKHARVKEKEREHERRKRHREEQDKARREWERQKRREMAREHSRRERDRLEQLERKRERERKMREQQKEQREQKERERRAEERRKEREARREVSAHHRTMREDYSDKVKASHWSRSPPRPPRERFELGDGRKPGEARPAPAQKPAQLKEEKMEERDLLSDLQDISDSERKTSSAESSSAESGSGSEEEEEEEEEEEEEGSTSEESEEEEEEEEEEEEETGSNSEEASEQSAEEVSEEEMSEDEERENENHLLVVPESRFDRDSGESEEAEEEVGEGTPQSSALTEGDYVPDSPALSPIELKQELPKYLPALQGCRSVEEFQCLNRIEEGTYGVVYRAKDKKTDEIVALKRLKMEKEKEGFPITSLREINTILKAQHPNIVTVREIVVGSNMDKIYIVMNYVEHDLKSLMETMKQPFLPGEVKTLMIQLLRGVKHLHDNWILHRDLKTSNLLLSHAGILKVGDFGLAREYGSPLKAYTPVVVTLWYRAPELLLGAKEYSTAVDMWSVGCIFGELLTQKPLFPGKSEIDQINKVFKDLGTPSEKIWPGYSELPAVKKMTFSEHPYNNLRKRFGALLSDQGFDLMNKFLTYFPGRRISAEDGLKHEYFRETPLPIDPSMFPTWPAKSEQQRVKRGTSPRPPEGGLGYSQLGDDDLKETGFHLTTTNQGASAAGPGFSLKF
T7 sequence (Q9P2K8 whole entry S808G): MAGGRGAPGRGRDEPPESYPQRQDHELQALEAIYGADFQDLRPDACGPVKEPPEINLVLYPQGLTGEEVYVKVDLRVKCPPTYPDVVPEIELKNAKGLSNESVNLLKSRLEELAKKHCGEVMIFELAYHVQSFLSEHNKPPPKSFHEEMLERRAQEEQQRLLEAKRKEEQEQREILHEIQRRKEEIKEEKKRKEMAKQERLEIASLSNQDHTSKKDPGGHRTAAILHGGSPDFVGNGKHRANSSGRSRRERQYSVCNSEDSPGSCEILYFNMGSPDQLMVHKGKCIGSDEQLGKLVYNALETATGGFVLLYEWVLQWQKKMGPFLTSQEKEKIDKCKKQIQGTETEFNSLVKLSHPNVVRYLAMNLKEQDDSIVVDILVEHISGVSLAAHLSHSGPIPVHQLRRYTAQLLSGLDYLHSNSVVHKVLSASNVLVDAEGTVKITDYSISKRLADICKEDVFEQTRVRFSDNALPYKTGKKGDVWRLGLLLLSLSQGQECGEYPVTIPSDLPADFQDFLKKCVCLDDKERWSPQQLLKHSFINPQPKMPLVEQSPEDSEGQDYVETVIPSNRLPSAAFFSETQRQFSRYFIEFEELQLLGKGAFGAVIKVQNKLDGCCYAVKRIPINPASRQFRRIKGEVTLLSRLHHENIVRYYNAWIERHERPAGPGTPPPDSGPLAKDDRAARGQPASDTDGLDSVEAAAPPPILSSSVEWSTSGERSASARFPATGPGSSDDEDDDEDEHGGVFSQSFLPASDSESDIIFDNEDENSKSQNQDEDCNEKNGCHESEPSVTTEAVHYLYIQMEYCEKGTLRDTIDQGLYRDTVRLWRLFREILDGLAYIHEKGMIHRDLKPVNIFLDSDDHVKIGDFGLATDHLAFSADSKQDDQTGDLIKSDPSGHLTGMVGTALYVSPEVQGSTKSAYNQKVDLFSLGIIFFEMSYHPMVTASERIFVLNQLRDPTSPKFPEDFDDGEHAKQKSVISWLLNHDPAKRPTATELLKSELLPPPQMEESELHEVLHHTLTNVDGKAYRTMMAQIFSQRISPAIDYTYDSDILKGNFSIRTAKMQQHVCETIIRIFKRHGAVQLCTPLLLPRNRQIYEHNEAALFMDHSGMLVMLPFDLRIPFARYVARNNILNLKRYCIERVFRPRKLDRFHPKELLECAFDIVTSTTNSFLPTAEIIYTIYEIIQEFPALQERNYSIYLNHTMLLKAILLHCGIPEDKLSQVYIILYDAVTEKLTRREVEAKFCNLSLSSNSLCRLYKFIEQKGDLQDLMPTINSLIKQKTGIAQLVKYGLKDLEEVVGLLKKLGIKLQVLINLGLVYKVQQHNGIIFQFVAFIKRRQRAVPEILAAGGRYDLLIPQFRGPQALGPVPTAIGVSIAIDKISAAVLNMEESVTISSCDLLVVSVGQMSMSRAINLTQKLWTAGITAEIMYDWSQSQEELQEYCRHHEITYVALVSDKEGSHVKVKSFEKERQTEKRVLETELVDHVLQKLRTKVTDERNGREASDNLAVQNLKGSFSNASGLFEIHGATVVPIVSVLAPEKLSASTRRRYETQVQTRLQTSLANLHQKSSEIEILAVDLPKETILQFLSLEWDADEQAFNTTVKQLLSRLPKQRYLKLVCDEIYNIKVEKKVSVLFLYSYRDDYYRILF
Sequence of HIPK3 (Q9H422 whole entry): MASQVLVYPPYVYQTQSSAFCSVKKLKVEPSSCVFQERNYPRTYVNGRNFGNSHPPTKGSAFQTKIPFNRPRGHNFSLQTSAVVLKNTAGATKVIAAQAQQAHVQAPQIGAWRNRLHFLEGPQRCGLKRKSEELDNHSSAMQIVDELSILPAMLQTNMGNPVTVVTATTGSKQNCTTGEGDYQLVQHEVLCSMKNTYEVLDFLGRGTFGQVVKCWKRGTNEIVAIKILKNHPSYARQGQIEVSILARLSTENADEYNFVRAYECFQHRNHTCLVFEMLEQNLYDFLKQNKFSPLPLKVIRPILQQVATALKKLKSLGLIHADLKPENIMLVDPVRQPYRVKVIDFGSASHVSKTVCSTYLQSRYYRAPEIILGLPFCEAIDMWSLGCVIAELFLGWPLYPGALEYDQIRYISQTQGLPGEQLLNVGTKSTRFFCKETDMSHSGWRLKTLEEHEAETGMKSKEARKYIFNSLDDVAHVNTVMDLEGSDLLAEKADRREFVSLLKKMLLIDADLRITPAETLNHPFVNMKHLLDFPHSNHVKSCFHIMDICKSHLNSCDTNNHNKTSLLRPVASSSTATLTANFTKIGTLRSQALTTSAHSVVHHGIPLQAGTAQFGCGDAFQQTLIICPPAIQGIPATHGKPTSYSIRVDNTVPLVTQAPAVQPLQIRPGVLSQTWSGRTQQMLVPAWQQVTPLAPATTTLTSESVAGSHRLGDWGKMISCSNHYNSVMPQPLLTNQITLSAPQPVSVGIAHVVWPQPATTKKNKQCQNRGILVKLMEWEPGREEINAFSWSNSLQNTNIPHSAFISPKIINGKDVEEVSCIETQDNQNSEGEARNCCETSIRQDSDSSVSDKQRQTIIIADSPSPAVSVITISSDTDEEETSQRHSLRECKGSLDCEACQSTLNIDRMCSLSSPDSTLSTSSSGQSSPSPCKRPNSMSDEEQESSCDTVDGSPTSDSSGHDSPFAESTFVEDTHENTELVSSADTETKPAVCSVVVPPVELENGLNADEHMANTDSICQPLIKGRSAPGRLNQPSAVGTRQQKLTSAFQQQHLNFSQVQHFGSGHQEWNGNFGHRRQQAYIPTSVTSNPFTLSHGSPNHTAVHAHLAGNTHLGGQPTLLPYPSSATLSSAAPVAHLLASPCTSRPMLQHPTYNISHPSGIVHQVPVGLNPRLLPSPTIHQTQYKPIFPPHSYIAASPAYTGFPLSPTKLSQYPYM
T5 sequence (Q16539 whole entry): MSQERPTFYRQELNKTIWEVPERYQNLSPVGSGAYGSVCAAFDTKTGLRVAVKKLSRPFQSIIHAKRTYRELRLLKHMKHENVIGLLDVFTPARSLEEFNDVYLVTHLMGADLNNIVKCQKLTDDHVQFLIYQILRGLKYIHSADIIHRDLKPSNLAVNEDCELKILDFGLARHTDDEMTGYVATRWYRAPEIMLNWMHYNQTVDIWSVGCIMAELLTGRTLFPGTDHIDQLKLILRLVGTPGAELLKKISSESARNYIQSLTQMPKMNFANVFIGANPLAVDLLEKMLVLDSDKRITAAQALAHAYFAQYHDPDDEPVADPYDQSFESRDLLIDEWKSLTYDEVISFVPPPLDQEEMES
T2 sequence (Q9P286 whole entry): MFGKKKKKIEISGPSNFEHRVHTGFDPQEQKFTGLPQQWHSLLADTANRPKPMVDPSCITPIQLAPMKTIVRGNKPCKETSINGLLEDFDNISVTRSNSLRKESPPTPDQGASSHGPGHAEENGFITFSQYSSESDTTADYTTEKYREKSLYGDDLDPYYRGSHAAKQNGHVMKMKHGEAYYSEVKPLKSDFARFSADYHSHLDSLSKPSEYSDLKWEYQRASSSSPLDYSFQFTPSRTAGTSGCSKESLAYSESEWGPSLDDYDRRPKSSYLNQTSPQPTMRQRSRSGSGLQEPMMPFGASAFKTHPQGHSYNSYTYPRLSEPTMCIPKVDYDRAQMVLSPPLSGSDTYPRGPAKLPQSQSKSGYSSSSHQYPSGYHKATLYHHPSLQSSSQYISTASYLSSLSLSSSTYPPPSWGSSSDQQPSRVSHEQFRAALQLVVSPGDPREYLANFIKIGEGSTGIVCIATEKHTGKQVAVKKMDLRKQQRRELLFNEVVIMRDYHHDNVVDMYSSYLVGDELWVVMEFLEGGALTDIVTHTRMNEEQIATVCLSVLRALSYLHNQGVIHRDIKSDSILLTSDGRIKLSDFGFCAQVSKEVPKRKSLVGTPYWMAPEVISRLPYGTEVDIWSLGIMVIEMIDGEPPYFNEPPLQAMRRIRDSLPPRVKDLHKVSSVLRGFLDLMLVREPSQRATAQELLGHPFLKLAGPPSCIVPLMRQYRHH

Compound: NC(=O)c1cccc2cn(-c3ccc([C@@H]4CCCNC4)cc3)nc12 [Niraparib]
percent of control binding at 10 µM [1, 9]: 100% | percent of control binding at 10 µM [2, 9]: 86% | percent of control binding at 10 µM [3, 9]: 100% | percent of control binding at 10 µM [4, 9]: 56% | percent of control binding at 10 µM [5, 9]: 2.5% | percent of control binding at 10 µM [6, 9]: 95% | percent of control binding at 10 µM [7, 9]: 100% | percent of control binding at 10 µM [8, 9]: 83%

percent of control binding at 10 µM [1, 10]: 91% | percent of control binding at 10 µM [2, 10]: 86% | Rucaparib / %Ctrl @ 10000nM ([3]; binding competition, % of control): 81% | percent of control binding at 10 µM [4, 10]: 78% | percent of control binding at 10 µM [5, 10]: 18% | percent of control binding at 10 µM [6, 10]: 90% | percent of control binding at 10 µM [7, 10]: 99% | percent of control binding at 10 µM [8, 10]: 55%
Compound: CNCc1ccc(-c2[nH]c3cc(F)cc4c3c2CCNC4=O)cc1 [Rucaparib]

percent of control binding at 10 µM [1, 11]: 96% | percent of control binding at 10 µM [2, 11]: 100% | percent of control binding at 10 µM [3, 11]: 79% | percent of control binding at 10 µM [4, 11]: 97% | percent of control binding at 10 µM [5, 11]: 100% | percent of control binding at 10 µM [6, 11]: 100% | percent of control binding at 10 µM [7, 11]: 99% | percent of control binding at 10 µM [8, 11]: 93%
Compound: O=C(c1cc(Cc2n[nH]c(=O)c3ccccc23)ccc1F)N1CCN(C(=O)C2CC2)CC1 [Olaparib]

percent of control binding at 10 µM [1, 12]: 100% | percent of control binding at 10 µM [2, 12]: 100% | percent of control binding at 10 µM [3, 12]: 100% | percent of control binding at 10 µM [4, 12]: 100% | percent of control binding at 10 µM [5, 12]: 55% | percent of control binding at 10 µM [6, 12]: 83% | percent of control binding at 10 µM [7, 12]: 100% | percent of control binding at 10 µM [8, 12]: 100%
Compound: Cn1ncnc1[C@H]1c2n[nH]c(=O)c3cc(F)cc(c23)N[C@@H]1c1ccc(F)cc1 [Talazoparib]
